# Results: article PMC3934894, “Inhibition of Human and Yeast 20S Proteasome by Analogues of Trypsin Inhibitor SFTI-1” (PLoS ONE, 2014)
# “And” between values parts separate entries of the source, which are not always exact repeats. Equal values may be shown once. Read-outs that look alike come from different tables or passages of the source. Peptide text beside a SMILES is read from it. * marks the point of attachment. Cbz = O=C(OCc1ccccc1)*
# Tests used:
# [1] = biological target: human 20S proteasome, caspase-like (C-L) activity (Homo sapiens, UniProt P28072); assay: C-L activity of SDS-activated human 20S proteasome (Z-LLE-AMC); settings: for IC50: pH 8.1, 37°C, Z-LLE-AMC 79 µM
# Method: (§1) An assay buffer was composed of 50 mM Tris-HCl (pH 8.1) and 0.02% (w/v) SDS (exceptionally, T-L activity was measured in Tris buffer without SDS, that may trigger precipitation of substrates containing the guanidino group [21]). […] The SFTI-1 analogues were incubated with 20S proteasome in assay buffer at 37°C for 30 min. Reactions were performed in 96-well black BRAND plates (Germany). The final volume of the solution in each well was 200 µL. […] Proteasomal subsite activities were determined by monitoring the AMC liberation over time with a Fluorostar Omega (BMG Labtech, Germany) using excitation and emission wavelengths of 380 nm and 450 nm, respectively. […] Association constants Ka were measured as described previously [14] and calculated using a two-parameter fit model (using the GraFit software package).
# [2] = biological target: yeast 20S proteasome, chymotrypsin-like (ChT-L) activity (Saccharomyces cerevisiae, UniProt P30656); assay: ChT-L activity of SDS-activated yeast 20S proteasome (Suc-LLVY-AMC)
# Method: (§2) The peptidase activities of 20S proteasome were assayed using fluorogenic tri- and tetra-peptides coupled at their C-termini with 7-amino-4-methylcoumarin group (AMC). The initial concentration of purified yeast 20S proteasome [E0] […] An assay buffer was composed of 50 mM Tris-HCl (pH 8.1) and 0.02% (w/v) SDS (exceptionally, T-L activity was measured in Tris buffer without SDS, that may trigger precipitation of substrates containing the guanidino group [21]). […] The SFTI-1 analogues were incubated with 20S proteasome in assay buffer at 37°C for 30 min. Reactions were performed in 96-well black BRAND plates (Germany). The final volume of the solution in each well was 200 µL. […] Proteasomal subsite activities were determined by monitoring the AMC liberation over time with a Fluorostar Omega (BMG Labtech, Germany) using excitation and emission wavelengths of 380 nm and 450 nm, respectively.
# [3] = biological target: human 20S proteasome, trypsin-like (T-L) activity (Homo sapiens, UniProt Q99436); assay: T-L activity of latent human 20S proteasome (Z-LLR-AMC, no SDS); settings: for IC50: T-like Human 20S IC50, latent human 20S, Tris buffer without SDS, pH 8.1, 37°C, Z-LLR-AMC 52 µM
# Method: as §2
# [4] = biological target: T1, human 20S proteasome, chymotrypsin-like (ChT-L) activity (Homo sapiens, UniProt P28074); assay: biochemical; settings: for IC50: ChT-like Human 20S IC50, SDS-activated human 20S, [E] 2.7 nM, pH 8.1, 37°C, Suc-LLVY-AMC 52 µM
# Method: as §1
# [5] = biological target: T1, human 20S proteasome, chymotrypsin-like (ChT-L) activity
# Method: as §1
# [6] = test system: 20S proteasome, T-L activity; settings: cited from earlier work
# HL-60 = test system: HL-60; parameters: method as in PMID 10805568; settings: human cancer cells HL-60; read-out: cytotoxic activity IC50, HL-60; cited from earlier work
# HCT-116 = test system: HCT-116; parameters: method as in PMID 10805568; settings: human cancer cells HCT-116; read-out: cytotoxic activity IC50, HCT-116; cited from earlier work
# [7] = test system: 20S proteasome, C-L activity; settings: cited from earlier work
# [8] = test system: 20S proteasome, ChT-L activity; settings: cited from earlier work
# 20S proteasome [9] = test system: 20S proteasome; parameters: method as in PMID 10805568; settings: ChT-L, T-L and C-L; cited from earlier work
# [10] = test system: rat and porcine 20S proteasomes, C-L site; parameters: method as in PMID 19054805; settings: cited from earlier work
# [11] = test system: rat and porcine 20S proteasomes, T-L; parameters: method as in PMID 19054805; settings: cited from earlier work
# [12] = test system: rat and porcine 20S proteasomes, ChT-L; parameters: method as in PMID 19054805; settings: cited from earlier work
# bovine α-chymotrypsin = test system: bovine α-chymotrypsin; parameters: method as in PMID 15746161; settings: determined previously in the authors' laboratory; cited from earlier work
# porcine 20S C–L activity = test system: porcine 20S C–L activity; parameters: method as in PMID 19054805; settings: cited from earlier work
# bovine β-trypsin = settings: cited from earlier work
# 20S proteasome [13] = test system: 20S proteasome; parameters: method as in PMID 19054805; settings: cited from earlier work
# [14] = C-like Human 20S IC50, SDS-activated human 20S
compound,measurement,setting,value
"CC[C@H](C)[C@@H]1NC(=O)[C@@H]2CCCN2C(=O)[C@H](CCCCN)NC(=O)[C@H](CCCCN)NC(=O)[C@H](CO)NC(=O)[C@H](Cc2ccccc2)NC(=O)[C@H]([C@@H](C)O)NC(=O)[C@@H](NC(=O)[C@H](CCCNC(=N)N)NC(=O)CN)CSSC[C@@H](C(=O)N[C@@H](Cc2ccccc2)C(=O)N2CCC[C@H]2C(=O)N[C@@H](CC(=O)O)C(=O)O)NC1=O [Analogue VII] (HELM PEPTIDE1{G.R.C.T.F.S.K.K.P.I.C.F.P.D}$PEPTIDE1,PEPTIDE1,3:R3-11:R3$$$V2.0)",IC50,[1]; [14],2800 nM
same,IC50,[2],5.34 µM
same,IC50,[3],45.3 µM
same,Ki,[4],1750 nM
same,IC50,[4],3410 nM
"CC[C@H](C)[C@@H]1NC(=O)[C@@H]2CCCN2C(=O)[C@H](CCCCN)NC(=O)[C@H](CCCCN)NC(=O)[C@H](CO)NC(=O)[C@H](Cc2ccc(O)cc2)NC(=O)[C@H]([C@@H](C)O)NC(=O)[C@@H](NC(=O)[C@H](CCCNC(=N)N)NC(=O)CN)CSSC[C@@H](C(=O)N[C@@H](Cc2ccccc2)C(=O)N2CCC[C@H]2C(=O)N[C@@H](CC(=O)O)C(=O)O)NC1=O [Analogue VI] (HELM PEPTIDE1{G.R.C.T.Y.S.K.K.P.I.C.F.P.D}$PEPTIDE1,PEPTIDE1,3:R3-11:R3$$$V2.0)",IC50,[1]; [14],4020 nM
same,IC50,[2],6.6 µM
same,IC50,[3],93.1 µM
same,Ki,[4],1430 nM
"CC[C@H](C)[C@@H]1NC(=O)[C@@H]2CCCN2C(=O)[C@H](CCCCN)NC(=O)[C@H](CCCCN)NC(=O)[C@H](CO)NC(=O)[C@H](CCCNC(=N)N)NC(=O)[C@H]([C@@H](C)O)NC(=O)[C@@H](NC(=O)[C@H](CCCNC(=N)N)NC(=O)CN)CSSC[C@@H](C(=O)N[C@@H](Cc2ccccc2)C(=O)N2CCC[C@H]2C(=O)N[C@@H](CC(=O)O)C(=O)O)NC1=O [Analogue V] (HELM PEPTIDE1{G.R.C.T.R.S.K.K.P.I.C.F.P.D}$PEPTIDE1,PEPTIDE1,3:R3-11:R3$$$V2.0)",IC50,[1]; [14],600 nM and 610 nM
same,IC50,[2],1.23 µM
same,times lower Ka than Z-LLL-CHO,[5]; human 20S ChT-L,about 6.5 times
same,IC50,[3],72.2 µM
same,Kd,[4],1000 nM
same,Ki,[4],310 nM
same,IC50,[4],900 nM and 940 nM
"CC[C@H](C)[C@@H]1NC(=O)[C@@H]2CCCN2C(=O)[C@H](CCCCN)NC(=O)[C@H](CCCCN)NC(=O)[C@H](CO)NC(=O)[C@H](CCCCN)NC(=O)[C@H]([C@@H](C)O)NC(=O)[C@@H](NC(=O)[C@H](CCCNC(=N)N)NC(=O)CN)CSSC[C@@H](C(=O)N[C@@H](Cc2ccccc2)C(=O)N2CCC[C@H]2C(=O)N[C@@H](CC(=O)O)C(=O)O)NC1=O [Analogue X] (HELM PEPTIDE1{G.R.C.T.K.S.K.K.P.I.C.F.P.D}$PEPTIDE1,PEPTIDE1,3:R3-11:R3$$$V2.0)",IC50,[1]; [14],1120 nM
same,IC50,"[2]; ChT-like Yeast 20S IC50, SDS-activated yeast 20S, [E] 0.9 nM, pH 8.1, 37°C, 30 min incubation, Suc-LLVY-AMC 5.2 µM",~16.7 µM and 16.7 µM
same,IC50,[3],86.7 µM
same,Ki,[4],660 nM
same,IC50,[4],~1280 nM and 1280 nM
C/C=C\NC(=O)[C@H]1NC(=O)[C@H](CC(N)=O)NC(=O)[C@@H](NC(=O)C(=O)[C@@H](C)CC)Cc2ccc(O)c(c2)-c2cccc3c2NC(=O)[C@@]3(O)[C@@H]1O [TMC-95A],IC50,[6]; read-out: IC50 T-L activity of 20S proteasome,200 nM
same,Ki,[6]; read-out: Ki app (apparent Ki constant) T-L,810 nM
same,IC50,HL-60,9.8 µM
same,IC50,HCT-116,4.4 µM
same,IC50,[7]; read-out: IC50 C-L activity of 20S proteasome,60 nM
same,Ki,[7]; read-out: Ki app (apparent Ki constant) C-L,29 nM
same,IC50,[8]; read-out: IC50 ChT-L activity of 20S proteasome,5.4 nM
same,Ki,[8]; read-out: Ki app (apparent Ki constant) ChT-L,1.1 nM
C/C=C\NC(=O)[C@H]1NC(=O)[C@H](CC(N)=O)NC(=O)[C@@H](NC(=O)C(=O)[C@H](C)CC)Cc2ccc(O)c(c2)-c2cccc3c2NC(=O)[C@@]3(O)[C@@H]1O [TMC-95B],reduction of 20S activities compared with TMC-95A,20S proteasome [9],to the same extent as TMC-95A
C/C=C\NC(=O)[C@H]1NC(=O)[C@H](CC(N)=O)NC(=O)[C@@H](NC(=O)C(=O)[C@@H](C)CC)Cc2ccc(O)c(c2)-c2cccc3c2NC(=O)[C@@]3(O)[C@H]1O [TMC-95C],times weaker than TMC-95A,20S proteasome [9],20–150 times
C/C=C\NC(=O)[C@H]1NC(=O)[C@H](CC(N)=O)NC(=O)[C@@H](NC(=O)C(=O)[C@H](C)CC)Cc2ccc(O)c(c2)-c2cccc3c2NC(=O)[C@@]3(O)[C@H]1O [TMC-95D],times weaker than TMC-95A,20S proteasome [9],20–150 times
"CC(C)C[C@@H](C=O)NC(=O)[C@H](CC(C)C)NC(=O)[C@H](CC(C)C)NC(=O)OCc1ccccc1 [Z-LLL-CHO, reference compound] (Cbz-Leu-Leu-Leu-aldehyde)",IC50,[1]; [14],5620 nM
same,IC50,[10],1700 nM
same,IC50,[2],0.26 µM
same,inhibition of ChT-L activity at 4 µM,[5],completely abolished
same,ChT-like Human 20S Ka×10^5,[5]; pH 8.1,65.4
same,IC50,[3],48.2 µM
same,IC50,[11],2300 nM
same,IC50,[12],780 nM
CC[C@H](C)[C@H](NC(=O)[C@H]([C@@H](C)CC)N(C)C(C)=O)C(=O)N[C@H](C(=O)N[C@@H](CC(C)C)C(=O)[C@@]1(C)CO1)[C@@H](C)O [epoxomicin],IC50,[10],3600 nM
same,IC50,[11],320 nM
same,IC50,[12],140 nM
[Phe^5]SFTI-1,Ka with bovine α-chymotrypsin,bovine α-chymotrypsin,2e+09 M⁻¹
bovine pancreatic trypsin inhibitor [BPTI],effect on C-L activity at concentrations lower than 1 µM,[1]; SDS-activated human 20S,reduced the C-L activity significantly
same,maximal inhibition of C-L activity,"[1]; SDS-activated human 20S, even at 12 µM, data not shown",≤ 80%
same,IC50,[10],530 nM
same,inhibition of ChT-L activity at 4 µM,"[5]; SDS-activated human 20S, 4 µM inhibitor",60%
same,inhibition of the ChT-L site at ten-fold higher concentration,"[5]; SDS-activated human 20S, ten-fold higher than 4 µM, data not shown",80%
same,reduction of T-L activity at around 40 µM,"[3]; latent human 20S, around 40 µM",60%
same,IC50,[11],790 nM
same,inhibition of porcine 20S C–L activity at 2 µM,porcine 20S C–L activity,86%
same,IC50,[12],420 nM
same,Ki,"[12]; competitive, read-out: inhibition constant Ki, ChT-L",2000 nM
sunflower trypsin inhibitor SFTI-1,IC50,"[1]; read-out: C-like Human 20S IC50, SDS-activated human 20S",58200 nM
same,association constant Ka with trypsin,bovine β-trypsin,1.1e+10 M⁻¹
same,Ki,"bovine β-trypsin; read-out: inhibitory constant Ki, trypsin",0.5 nM
same,inhibition of 20S proteasome,20S proteasome [13],does not cause any inhibition
